According to US20260325533A1, “CDK INHIBITOR COMPOUNDS” (ALEKSIA THERAPEUTICS, INC., priority 2023, published 2026):
Read-outs that look alike come from different tables or passages of the source.

Legend:
Format in all cases: biochemical
CDK2/CCNE1 = CDK2/CCNE1 (Homo sapiens, UniProt P24941); experiment: CDK2 homogeneous time-resolved fluorescence (HTRF) kinase assay; details: CDK2/CCNE
Summary of the method: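 TR-FRET read-out (665 nm, or 665/615 ratio) of Eu-antibody detection of phospho-4E-BP1 (Thr37/46) ULight peptide. Enzyme 3 nM, ATP 1 mM, peptide 50 nM, 1% DMSO; 60 min reaction at 23 °C after 20 min compound preincubation. IC50 from 11-point half-log titrations, top typically 10 μM.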

CDK6/CCND1 = CDK6/CCND1 (Homo sapiens, UniProt Q00534); experiment: CDK6 homogeneous time-resolved fluorescence (HTRF) kinase assay; details: CDK6/CCND
Sequence of CDK6/CCND1 (Q00534 whole entry): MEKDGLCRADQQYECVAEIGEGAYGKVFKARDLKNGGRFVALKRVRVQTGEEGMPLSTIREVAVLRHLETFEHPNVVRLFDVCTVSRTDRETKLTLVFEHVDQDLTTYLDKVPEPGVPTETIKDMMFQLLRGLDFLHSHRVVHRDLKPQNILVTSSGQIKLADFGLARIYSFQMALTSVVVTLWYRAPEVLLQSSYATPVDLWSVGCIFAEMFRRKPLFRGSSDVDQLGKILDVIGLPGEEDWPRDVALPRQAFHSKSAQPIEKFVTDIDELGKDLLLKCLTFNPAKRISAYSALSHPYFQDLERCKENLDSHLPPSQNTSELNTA
Sequence of CDK6/CCND1 (P24385 whole entry partner): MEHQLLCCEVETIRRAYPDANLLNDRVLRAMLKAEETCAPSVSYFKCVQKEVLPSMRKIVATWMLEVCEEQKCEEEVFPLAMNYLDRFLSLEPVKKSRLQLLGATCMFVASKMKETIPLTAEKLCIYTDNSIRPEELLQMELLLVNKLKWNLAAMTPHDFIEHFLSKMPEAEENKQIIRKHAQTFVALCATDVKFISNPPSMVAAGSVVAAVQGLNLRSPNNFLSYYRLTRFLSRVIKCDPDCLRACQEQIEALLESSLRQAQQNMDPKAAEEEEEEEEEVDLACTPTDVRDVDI
Summary of the method: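 Assay conditions: HEPES buffer containing 10 mM MgCl2, 1 mM EGTA, 2 mM DTT, 0.01% Tween 20; 1 nM CDK6/CCND1, 50 nM peptide substrate, 1 mM ATP. Detection after 60 min reaction used 2 nM europium antibody with 340 nm excitation. Potency fitted from half-log series, 11 points.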

CDK4/CCND3 = CDK4/CCND3 (Homo sapiens, UniProt P11802); experiment: CDK4 homogeneous time-resolved fluorescence (HTRF) kinase assay; details: CDK4/CCND
Sequence of CDK4/CCND3 (P11802 whole entry): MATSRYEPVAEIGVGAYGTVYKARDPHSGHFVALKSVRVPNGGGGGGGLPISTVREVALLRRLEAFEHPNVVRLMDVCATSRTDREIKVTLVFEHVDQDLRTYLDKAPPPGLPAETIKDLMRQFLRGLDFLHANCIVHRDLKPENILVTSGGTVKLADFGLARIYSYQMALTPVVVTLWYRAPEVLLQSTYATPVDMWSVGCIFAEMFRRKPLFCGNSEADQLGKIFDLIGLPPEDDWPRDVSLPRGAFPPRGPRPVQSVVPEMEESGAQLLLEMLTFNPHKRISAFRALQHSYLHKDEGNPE
Sequence of CDK4/CCND3 (P30281 whole entry partner): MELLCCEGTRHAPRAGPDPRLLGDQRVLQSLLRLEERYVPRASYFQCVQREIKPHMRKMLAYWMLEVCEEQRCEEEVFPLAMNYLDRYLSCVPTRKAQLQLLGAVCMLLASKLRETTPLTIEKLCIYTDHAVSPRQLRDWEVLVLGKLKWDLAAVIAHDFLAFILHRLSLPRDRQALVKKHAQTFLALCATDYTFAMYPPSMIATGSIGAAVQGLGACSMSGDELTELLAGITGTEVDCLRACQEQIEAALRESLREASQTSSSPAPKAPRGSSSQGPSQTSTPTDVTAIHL
Summary of the method: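 TR-FRET read (665 nm, or 665/615 ratio) of 4E-BP1 Thr37/46 phosphorylation by 1.5 nM CDK4/CCND3 at 1 mM ATP, 50 nM ULight peptide, 1% DMSO. Reaction ran 60 min at 23 °C after 20 min compound–enzyme preincubation. IC50 from 11-point half-log dilutions, top 10 μM.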

CDK1/CCNB1 = CDK1/CCNB1 (Homo sapiens, UniProt P06493); experiment: CDK1 homogeneous time-resolved fluorescence (HTRF) kinase assay; details: CDK1/CCNB
Sequence of CDK1/CCNB1 (P06493 whole entry): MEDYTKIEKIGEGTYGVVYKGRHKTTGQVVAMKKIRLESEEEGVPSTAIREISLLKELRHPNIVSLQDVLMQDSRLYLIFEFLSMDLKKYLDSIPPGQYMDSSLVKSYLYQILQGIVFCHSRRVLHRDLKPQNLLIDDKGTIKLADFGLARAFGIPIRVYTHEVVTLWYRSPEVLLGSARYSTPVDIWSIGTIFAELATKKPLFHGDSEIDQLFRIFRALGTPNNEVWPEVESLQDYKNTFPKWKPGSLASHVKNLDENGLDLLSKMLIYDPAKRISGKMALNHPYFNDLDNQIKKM
Sequence of CDK1/CCNB1 (P14635 whole entry partner): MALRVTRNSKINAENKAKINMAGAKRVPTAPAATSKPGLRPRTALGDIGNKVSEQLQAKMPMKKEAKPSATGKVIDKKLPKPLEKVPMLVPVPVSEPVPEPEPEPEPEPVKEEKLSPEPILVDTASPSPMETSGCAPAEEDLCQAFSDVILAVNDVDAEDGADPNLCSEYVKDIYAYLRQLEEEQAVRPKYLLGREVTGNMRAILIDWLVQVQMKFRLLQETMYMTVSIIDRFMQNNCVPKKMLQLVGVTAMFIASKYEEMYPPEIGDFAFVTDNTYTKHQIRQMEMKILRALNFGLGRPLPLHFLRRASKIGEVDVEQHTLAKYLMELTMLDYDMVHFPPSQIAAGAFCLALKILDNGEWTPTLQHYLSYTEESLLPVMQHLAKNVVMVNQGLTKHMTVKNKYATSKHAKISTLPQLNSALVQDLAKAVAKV
Summary of the method: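 High-ATP (1 mM) HTRF assay with 0.5 nM CDK1/cyclin B1 and 50 nM ULight-4E-BP1 (Thr37/46) substrate, 60 min at 23 °C after 20-min compound preincubation. IC50 values come from dose-response curves.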

[1] = x = IC50 <25 nM, read-out: CDK2/CCNE IC50 (<25 nM)
[2] = x = IC50 >250 nM, read-out: CDK6/CCND IC50 (>250 nM column)
[3] = x = IC50 >250 nM, read-out: CDK4/CCND IC50 (>250 nM column)
[4] = x = IC50 >250 nM, read-out: CDK1/CCNB IC50 (>250 nM column)
[5] = x = IC50 25-250 nM, read-out: CDK2/CCNE IC50 (25-250 nM)
[6] = x = IC50 25-250 nM, read-out: CDK6/CCND IC50 (25-250 nM)
[7] = x = IC50 25-250 nM, read-out: CDK4/CCND IC50 (25-250 nM)
[8] = x = IC50 25-250 nM, read-out: CDK1/CCNB IC50 (25-250 nM)

Row | SMILES | IC50 (CDK2/CCNE1; [1]) | IC50 (CDK6/CCND1; [2]) | IC50 (CDK4/CCND3; [3]) | IC50 (CDK1/CCNB1; [4]) | IC50 (CDK2/CCNE1; [5]) | IC50 (CDK6/CCND1; [6]) | IC50 (CDK4/CCND3; [7]) | IC50 (CDK1/CCNB1; [8])
1 | CS(=O)(=O)c1ccc(Nc2cc3c(C#Cc4ccc(C#N)cc4C(F)(F)F)nccc3cn2)cc1 [Ex 647, 4-((7-((4-(methylsulfonyl)phenyl)amino)-2,6-naphthyridin-1-yl)ethynyl)-3-(trifluoromethyl)benzonitrile] | < 25 nM | > 250 nM | > 250 nM | > 250 nM | – | – | – | –
2 | CS(=O)(=O)c1ccc(Nc2cc3c(C#Cc4ccc5nc[nH]c5c4)nccc3cn2)cc1 [Ex 648, 5-((1H-benzo[d]imidazol-6-yl)ethynyl)-N-(4-(methylsulfonyl)phenyl)-2,6-naphthyridin-3-amine] | < 25 nM | > 250 nM | > 250 nM | > 250 nM | – | – | – | –
3 | CS(=O)(=O)c1ccc(Nc2cc3c(-c4ccc5c(c4)CNC(=O)C5)nccc3cn2)cc1 [Ex 649, 7-(7-((4-(methylsulfonyl)phenyl)amino)-2,6-naphthyridin-1-yl)-1,4-dihydroisoquinolin-3(2H)-one] | – | > 250 nM | > 250 nM | > 250 nM | 25 to 250 nM | – | – | –
4 | CS(=O)(=O)c1ccc(Nc2cc3c(C#Cc4ccc(C#N)c(F)c4)nccc3cn2)cc1 [Ex 650, 2-fluoro-4-((7-((4-(methylsulfonyl)phenyl)amino)-2,6-naphthyridin-1-yl)ethynyl)benzonitrile] | – | > 250 nM | > 250 nM | > 250 nM | 25 to 250 nM | – | – | –
5 | CS(=O)(=O)c1ccc(Nc2cc3c(C#Cc4ccc(C#N)c(F)c4F)nccc3cn2)cc1 [Ex 651, 2,3-difluoro-4-((7-((4-(methylsulfonyl)phenyl)amino)-2,6-naphthyridin-1-yl)ethynyl)benzonitrile] | – | > 250 nM | > 250 nM | > 250 nM | 25 to 250 nM | – | – | –
6 | CS(=O)(=O)c1ccc(Nc2cc3c(C#Cc4ccc(CCO)cc4)nccc3cn2)cc1 [Ex 652, 2-(4-((7-((4-(methylsulfonyl)phenyl)amino)-2,6-naphthyridin-1-yl)ethynyl)phenyl)ethan-1-ol] | < 25 nM | > 250 nM | > 250 nM | > 250 nM | – | – | – | –
7 | COC(=O)N1CCC(C#Cc2nccc3cnc(Nc4ccc(S(C)(=O)=O)cc4)cc23)CC1 [Ex 653, methyl 4-((7-((4-(methylsulfonyl)phenyl)amino)-2,6-naphthyridin-1-yl)ethynyl)piperidine-1-carboxylate] | – | > 250 nM | > 250 nM | > 250 nM | 25 to 250 nM | – | – | –
8 | Cn1cc2c(Cl)c(-c3nccc4cnc(Nc5ccc(S(C)(=O)=O)cc5)cc34)ccc2n1 [Ex 655, 5-(4-chloro-2-methyl-2H-indazol-5-yl)-N-(4-(methylsulfonyl)phenyl)-2,6-naphthyridin-3-amine] | < 25 nM | > 250 nM | > 250 nM | > 250 nM | – | – | – | –
9 | Cc1c(-c2nccc3cnc(Nc4ccc(S(C)(=O)=O)cc4)cc23)ccc2c1cnn2CC#N [Ex 656, 2-(4-methyl-5-(7-((4-(methylsulfonyl)phenyl)amino)-2,6-naphthyridin-1-yl)-1H-indazol-1-yl)acetonitrile] | – | > 250 nM | > 250 nM | > 250 nM | 25 to 250 nM | – | – | –
10 | Cc1c(-c2nccc3cnc(Nc4ccc(S(C)(=O)=O)cc4)cc23)ccc2c1ccn2CCO [Ex 657, 2-(4-methyl-5-(7-((4-(methylsulfonyl)phenyl)amino)-2,6-naphthyridin-1-yl)-1H-indol-1-yl)ethan-1-ol] | < 25 nM | – | – | – | – | 25 to 250 nM | 25 to 250 nM | 25 to 250 nM
11 | Cc1c(-c2nccc3cnc(Nc4ccc(S(C)(=O)=O)cc4)cc23)ccc2cn[nH]c12 [Ex 658, 5-(7-methyl-1H-indazol-6-yl)-N-(4-(methylsulfonyl)phenyl)-2,6-naphthyridin-3-amine] | < 25 nM | – | – | – | – | 25 to 250 nM | 25 to 250 nM | 25 to 250 nM
12 | COc1cc(C#Cc2nccc3cnc(Nc4ccc(S(C)(=O)=O)cc4)cc23)ccn1 [Ex 660, 5-((2-methoxypyridin-4-yl)ethynyl)-N-(4-(methylsulfonyl)phenyl)-2,6-naphthyridin-3-amine] | – | > 250 nM | > 250 nM | > 250 nM | 25 to 250 nM | – | – | –
